Legend:
[1] = system: Saccharomyces cerevisiae wild type strain BY4743; experiment: AF1 metabolite analysis (GC-MS, LC-MS) of yeast cells treated with antifungal drugs; assay type: cell-based; set-up: Fold Change: scale not given here; details: for # Compounds perturbed by treatment: yeast, 2x MIC, two hours
[2] = system: Saccharomyces cerevisiae wild type strain BY4743; experiment: AF1 combined gene expression and metabolite data mapped to KEGG reactions and pathways; assay type: cell-based; details: yeast AF1
Source text: In AF1, two different technologies were utilized: gene expression analysis (for examination of mRNA expression) and metabolite analysis. […] As noted previously, existing metabolic databases may be helpful in practicing the methods and systems of the present invention, but many databases include limitations that make their use in data analysis and pathway mapping less than straightforward. […] This caveat to KEGG makes it difficult to pinpoint the correct pathway when attempting to link a gene to a specific pathway. […] The pathway score indicates how meaningful the mapping is, or how likely it is to be correctly indicative of the pathway involved in the perturbation under examination. The method provides a pathway score based on perturbation levels of genes and/or compounds and the information content of each gene and/or compound in the pathway, i.e., a pathway score indicates the extent to which other pathways are mapped to a gene/compound. For example, imagine that two genes are perturbed in a particular experiment. One gene maps to only one pathway, giving a high degree of probability that the perturbed pathway is the one identified in the mapping. The second gene maps to three pathways. In the later example, there is only one-third the probability that the pathway identified in the mapping is the one perturbed. The present invention provides a method for calculating the pathway scores, so that more weight is given to a score of a gene or compound that maps to only one pathway than to a score of a gene or compound that maps to multiple pathways. […] Where n=the total number of genes in the pathway; ipath—count=the number of pathways containing a gene; and j=the number of genes in the pathway that are perturbed. Another factor to be considered when weighting a pathway score is the degree of perturbation. Degree of perturbation can be calculated, for example, based on a number of standard deviations from a norm, and included in an equation such as the one shown above, so that not only the number of pathways is taken into account, but also accounts for the amount of gene transcript or compound present as compared to a control. Compounds were also linked to pathways using the KEGG database. KEGG links 676 compounds measured in AF1 to a total of 92 pathways. Of the 676 compounds under consideration, 77 were detected in the AF1 samples. […] The multiple mapping feature of KEGG makes it difficult to pinpoint the correct pathway when trying to link a compound to a specific pathway. […] A pathway score calculation is applied to the compounds to account for both information content (number of pathways a compound maps to) and perturbation level. The data were then combined to determine the number of reactions showing an enzyme and at least one compound perturbed, and to determine the number of pathways having at least one enzyme and one perturbed compound perturbed. The results of the analysis are represented in Tables 16 and 17, and were difficult to interpret, illustrating that the ability to draw conclusions from compound mapping to pathways is limited when absent additional data.

C[C@@H]1[C@H](O)[C@@H](C)/C=C/C=C/C=C/C=C/C=C/C=C/C=C/[C@H](O[C@@H]2O[C@H](C)[C@@H](O)[C@H](N)[C@@H]2O)C[C@@H]2O[C@](O)(C[C@@H](O)C[C@@H](O)[C@H](O)CC[C@@H](O)C[C@@H](O)CC(=O)O[C@H]1C)C[C@H](O)[C@H]2C(=O)O [Amphoteracin B]
# Compounds perturbed by treatment ([1]; P < 0.05): 16 | # Compounds perturbed by treatment ([1]; P < 0.1): 21 | Fold Change ([1]; metabolite 3-indolylacetonitri, platform nLC): −0.9998 | Fold Change ([1]; metabolite 4-aminobenzoic acid, platform pLC): 0 | Fold Change ([1]; metabolite 4-methylcatechol, platform nLC): 0 | Fold Change ([1]; metabolite 4-methylcatechol, platform pLC): 0 | Fold Change ([1]; metabolite 4ambutyrate/dimglyc, platform pLC): 0.01279 | Fold Change ([1]; metabolite 4aminobutyrate/dimg, platform nLC): −0.1983 | Fold Change ([1]; metabolite DL-aminoadipic acid, platform pLC): 0.4703 | Fold Change ([1]; metabolite DLaminoadipic acid, platform nLC): 1.411 | Fold Change ([1]; metabolite NacetylD-glucosamine, platform nLC): 0 | Fold Change ([1]; metabolite NacetylD-glucosamine, platform pLC): 0 | Fold Change ([1]; metabolite NacetylL-glutamate, platform nLC): −0.1078 | Fold Change ([1]; metabolite NacetylL-glutamate, platform pLC): 0 | Fold Change ([1]; metabolite NacetylL-ornithine, platform nLC): 0 | Fold Change ([1]; metabolite NacetylL-ornithine, platform pLC): 1.319 | Fold Change ([1]; metabolite decanoic acid, platform nLC): −0.08716 | Fold Change ([1]; metabolite desmosterol, platform GC): 0 | Fold Change ([1]; metabolite diaminopimelic acid, platform nLC): 0 | Fold Change ([1]; metabolite diaminopimelic acid, platform pLC): 0 | Fold Change ([1]; metabolite dihydrofolic acid, platform nLC): 0 | Fold Change ([1]; metabolite dihydrofolic acid, platform pLC): 0 | Fold Change ([1]; metabolite dipicolinic acid, platform pLC): 0 | Fold Change ([1]; metabolite disaccaride1, platform GC): −1 | Fold Change ([1]; metabolite disaccaride2, platform GC): −0.9977 | Fold Change ([1]; metabolite disaccaride3, platform GC): −0.9977 | Fold Change ([1]; metabolite ergosterol, platform GC): 2.303 | Fold Change ([1]; metabolite estrone, platform nLC): 0 | Fold Change ([1]; metabolite farnesol, platform nLC): 0 | Fold Change ([1]; metabolite folic acid, platform nLC): 0 | Fold Change ([1]; metabolite folic acid, platform pLC): 0 | Fold Change ([1]; metabolite fucosterol, platform GC): −0.6553 | Fold Change ([1]; metabolite fumaric/3m2oxobutan, platform nLC): 0.4423 | Fold Change ([1]; metabolite gallic acid, platform nLC): 0.1622 | Fold Change ([1]; metabolite gibberellic, platform nLC): 0 | Fold Change ([1]; metabolite glucosamine-6PO4, platform nLC): −0.9951 | Fold Change ([1]; metabolite glucosamine-6PO4, platform pLC): 0 | Fold Change ([1]; metabolite glucosamine, platform pLC): 0 | Fold Change ([1]; metabolite glutamate, platform pLC): 0.4341 | Fold Change ([1]; metabolite glutamic/acetylseri, platform nLC): 0.1414 | Fold Change ([1]; metabolite glutamine/lysine, platform nLC): 0.07919 | Fold Change ([1]; metabolite glutamine/lysine, platform pLC): 0.3981 | Fold Change ([1]; metabolite glutamine, platform GC): −0.9116 | Fold Change ([1]; metabolite glutathione, platform pLC): −0.03348 | Fold Change ([1]; metabolite glycanopyrose, platform GC): −0.958 | Fold Change ([1]; metabolite glycerol, platform GC): −0.815 | Fold Change ([1]; metabolite glycine, platform GC): 0.8807 | Fold Change ([1]; metabolite guanine, platform nLC): 0 | Fold Change ([1]; metabolite guanosine, platform nLC): 1.131 | Fold Change ([1]; metabolite guanosine, platform pLC): 0.7598 | Fold Change ([1]; metabolite hexadecanoic acid, platform GC): −0.2427 | Fold Change ([1]; metabolite histidine, platform nLC): 0 | Fold Change ([1]; metabolite histidine, platform pLC): 0 | Fold Change ([1]; metabolite homogentisic/uric, platform nLC): 0 | Fold Change ([1]; metabolite hydrocortisone, platform nLC): 0 | Fold Change ([1]; metabolite hydrocortisone, platform pLC): 0 | Fold Change ([1]; metabolite hypoxanthine, platform nLC): 0.1655 | Fold Change ([1]; metabolite hypoxanthine, platform pLC): 0.2057 | Fold Change ([1]; metabolite indole3-pyruvic acid, platform nLC): 0 | Fold Change ([1]; metabolite inostol/glucos/sorb, platform nLC): −0.5905 | Fold Change ([1]; metabolite iso citric acid, platform GC): −0.6183 | Fold Change ([1]; metabolite isocitric/citric/qu, platform nLC): 2.549 | Fold Change ([1]; metabolite isoleucine, platform GC): −0.9533 | Fold Change ([1]; metabolite itaconic acid dimes, platform pLC): 0 | Fold Change ([1]; metabolite jasmonic acid, platform nLC): 0 | Fold Change ([1]; metabolite kinetin, platform nLC): 0 | Fold Change ([1]; metabolite kinetin, platform pLC): 0 | Fold Change ([1]; metabolite lactic acid, platform nLC): −0.02583 | Fold Change ([1]; metabolite lanosterol, platform GC): −1 | Fold Change ([1]; metabolite lauric acid, platform nLC): 0.1225 | Fold Change ([1]; metabolite leucine/isoleucine/, platform nLC): 0.1319 | Fold Change ([1]; metabolite leucine/isoleucine/, platform pLC): 0.2746 | Fold Change ([1]; metabolite leucine, platform GC): −0.9443 | Fold Change ([1]; metabolite luteolin, platform nLC): 0 | Fold Change ([1]; metabolite luteolin, platform pLC): 0 | Fold Change ([1]; metabolite lysine, platform GC): −0.3925 | Fold Change ([1]; metabolite malic acid, platform GC): −0.963 | Fold Change ([1]; metabolite malic acid, platform nLC): 0.6212 | Fold Change ([1]; metabolite malonic acid, platform nLC): 0 | Fold Change ([1]; metabolite mannitol, platform pLC): 0.4543 | Fold Change ([1]; metabolite menthol*, platform nLC): −0.07013 | Fold Change ([1]; metabolite methionine, platform nLC): 0 | Fold Change ([1]; metabolite methionine, platform pLC): 0.3299 | Fold Change ([1]; metabolite mevalonic acid lactone, platform GC): −0.1276 | Fold Change ([1]; metabolite mevalonic lactone, platform pLC): −0.4606 | Fold Change ([1]; metabolite niacinamide, platform pLC): 0 | Fold Change ([1]; metabolite nicotinic acid, platform nLC): 0.3131 | Fold Change ([1]; metabolite nicotinic acid, platform pLC): −0.9989 | Fold Change ([1]; metabolite nopaline, platform nLC): 0.3342 | Fold Change ([1]; metabolite nopaline, platform pLC): 0 | Fold Change ([1]; metabolite octadecanoic acid, platform GC): 0.21 | Fold Change ([1]; metabolite oleic acid, platform GC): −0.4593 | Fold Change ([1]; metabolite oleic acid, platform nLC): 0.689 | Fold Change ([1]; metabolite ornithine2, platform GC): −1 | Fold Change ([1]; metabolite ornithine3, platform GC): −0.9853 | Fold Change ([1]; metabolite ornithine, platform nLC): 2.534 | Fold Change ([1]; metabolite ornithine, platform pLC): 0.5049 | Fold Change ([1]; metabolite orotic acid, platform nLC): 8380 | Fold Change ([1]; metabolite palmiteliadic acid, platform GC): 0.515 | Fold Change ([1]; metabolite palmitic acid, platform nLC): 0.3979 | Fold Change ([1]; metabolite phenylalanine, platform GC): −0.9797 | Fold Change ([1]; metabolite phenylalanine, platform nLC): −0.1906 | # Reactions (title: Number Of Pathways Having at Least One Enzyme and One Compound Perturbed) [2]: 37 | # Reactions having an enzyme and at least one compound perturbed [2]: 54

From patent US20040019430A1, “Methods and systems for analyzing complex biological systems” (priority 2001, published 2004)
